Assay: xn = mol fraction of the nth substance listed

C=C(C)C(=O)OCC + CC#N
viscosity [mPa·s], 101 kPa
Settings	298.15 K	303.15 K	308.15 K	313.15 K	318.15 K
x2 = 0.0556	0.6285	0.5725	0.5246	0.4857	0.4542
x2 = 0.1112	0.6154	0.562	0.5162	0.479	0.4489
x2 = 0.1631	0.6027	0.5516	0.5079	0.4722	0.4433
x2 = 0.2147	0.5894	0.5408	0.499	0.4649	0.4372
x2 = 0.2795	0.5723	0.5266	0.4872	0.455	0.4287
x2 = 0.3446	0.5545	0.5115	0.4746	0.4443	0.4194
x2 = 0.4132	0.5349	0.495	0.4606	0.4322	0.4088
x2 = 0.4819	0.5147	0.4777	0.4458	0.4194	0.3974
x2 = 0.5597	0.4911	0.4574	0.4283	0.404	0.3836
x2 = 0.6375	0.4667	0.4364	0.41	0.3878	0.3689
x2 = 0.7251	0.4385	0.4119	0.3885	0.3686	0.3515
x2 = 0.8113	0.4101	0.387	0.3666	0.349	0.3334
x2 = 0.9014	0.3798	0.3604	0.343	0.3277	0.3137
x2 = 0.9542	0.3618	0.3445	0.3289	0.3148	0.3018

O=C(O)c1cccc([N+](=O)[O-])c1 + CCCO
viscosity [mPa·s], 101 kPa
Settings	x1 = 0.219	x1 = 0.22	x1 = 0.244	x1 = 0.261	x1 = 0.2797	x1 = 0.2805
318.15 K	3.007	3.007	3.286	3.62	3.951	3.95
323.15 K	2.632	–	–	–	–	3.456

CC1CCCCC1 + CCCCCCCO
Settings	viscosity [mPa·s]
298.15 K, 101 kPa, x1 = 0.111	4.608
298.15 K, 101 kPa, x1 = 0.2237	3.546
298.15 K, 101 kPa, x1 = 0.389	2.371
298.15 K, 101 kPa, x1 = 0.6878	1.192
298.15 K, 101 kPa, x1 = 0.8281	0.89
298.15 K, 101 kPa, x1 = 0.9181	0.757
303.15 K, 101.33 kPa, x2 = 0.1208	0.7838
303.15 K, 101.33 kPa, x2 = 0.211	0.9181
303.15 K, 101.33 kPa, x2 = 0.3517	1.174
303.15 K, 101.33 kPa, x2 = 0.4355	1.364
303.15 K, 101.33 kPa, x2 = 0.5214	1.599
303.15 K, 101.33 kPa, x2 = 0.608	1.899
303.15 K, 101.33 kPa, x2 = 0.718	2.394
303.15 K, 101.33 kPa, x2 = 0.7991	2.87
303.15 K, 101.33 kPa, x2 = 0.8894	3.56

Cc1ccccc1[N+](=O)[O-] + Cc1cccc(C)c1
308.15 K, 101.33 kPa
Settings	viscosity [mPa·s]
x2 = 0.1014	1.358
x2 = 0.2022	1.154
x2 = 0.3044	1.027
x2 = 0.4036	0.938
x2 = 0.499	0.87
x2 = 0.6052	0.792
x2 = 0.6913	0.735
x2 = 0.8068	0.654
x2 = 0.8993	0.596

CCCNCCC + CCCCCCCCCCO
viscosity [mPa·s], 101.33 kPa
Settings	x1 = 0.1006	x1 = 0.1963	x1 = 0.2905	x1 = 0.3847	x1 = 0.5117	x1 = 0.618	x1 = 0.7197	x1 = 0.8159	x1 = 0.895
303.15 K	7.53	6.262	5.075	3.99	2.748	1.943	1.364	0.9795	0.7427
313.15 K	5.817	4.775	3.828	2.993	2.07	1.486	1.076	0.7925	0.6095

CC1CCCCC1 + CC(C)CC(C)(C)C
viscosity [mPa·s], 101 kPa
Settings	298.15 K	303.15 K	308.15 K
x1 = 0.1032	–	0.462	–
x1 = 0.105	–	0.466	0.438
x1 = 0.201	–	0.478	–
x1 = 0.221	–	0.4798	–
x1 = 0.3024	0.522	0.492	0.462
x1 = 0.399	–	0.5062	–
x1 = 0.4039	0.539	0.508	0.476
x1 = 0.4974	–	0.524	–
x1 = 0.4998	0.556	0.523	0.491
x1 = 0.5998	–	0.5431	–
x1 = 0.6064	0.577	0.543	0.509
x1 = 0.6991	0.597	0.562	0.526
x1 = 0.7018	–	0.5656	–
x1 = 0.8004	0.62	0.583	0.546
x1 = 0.8012	–	0.5892	–
x1 = 0.8991	–	0.6154	–
x1 = 0.9007	0.648	0.608	0.568

N#CCc1ccccc1 + ClCCCl
101 kPa
Settings	viscosity [mPa·s]
303.15 K, x1 = 0.9705	1.725
313.15 K, x1 = 0.648	1.165

CCOC(=O)[C@@H](O)[C@H](O)C(=O)OCC + CC(C)CO
viscosity [mPa·s], 101 kPa
Settings	x1 = 0.1	x1 = 0.2	x1 = 0.3001	x1 = 0.3999	x1 = 0.5	x1 = 0.6001	x1 = 0.6989	x1 = 0.7998	x1 = 0.8994
293.15 K	5.103	7.263	10.49	15.86	24.25	34.35	50.55	88.25	140.9
298.15 K	4.28	5.98	8.485	12.38	18.34	25.34	36.11	59.79	91.12
303.15 K	3.601	4.928	6.848	9.831	14.09	19.07	26.5	42.09	62.16
308.15 K	3.052	4.111	5.611	7.889	11.06	14.71	19.99	30.63	43.93
313.15 K	2.607	3.444	4.609	6.39	8.797	11.53	15.38	22.88	31.96
318.15 K	2.249	2.956	3.912	5.322	7.201	9.298	12.19	17.64	24.09
323.15 K	1.973	2.567	3.358	4.497	5.991	7.637	9.865	13.94	18.67

CCCCCl + CCCCCCCCCCCC
298 K, 101.3 kPa
Settings	viscosity [mPa·s]
x2 = 0.1032	0.5072
x2 = 0.202	0.5794
x2 = 0.2999	0.6598
x2 = 0.3986	0.7447
x2 = 0.4981	0.8232
x2 = 0.6017	0.9282
x2 = 0.7015	1.034
x2 = 0.7981	1.13
x2 = 0.8948	1.22

[Li+].[O-][Cl+3]([O-])([O-])[O-] + C1COCO1
101 kPa, x1 = 0.07
Settings	viscosity [mPa·s]
303.15 K	1
308.15 K	0.93
313.15 K	0.89
318.15 K	0.85
323.15 K	0.81

CCOC(=O)[C@@H](O)[C@H](O)C(=O)OCC + CCCCCCO
viscosity [mPa·s], 101 kPa
Settings	x1 = 0.1001	x1 = 0.2	x1 = 0.3	x1 = 0.4	x1 = 0.5	x1 = 0.5998	x1 = 0.7001	x1 = 0.8	x1 = 0.8995
293.15 K	6.18	7.861	10.57	14.54	20.8	30.68	43.54	72.93	122.9
298.15 K	5.252	6.543	8.559	11.55	16.09	22.97	31.66	50.5	81.01
303.15 K	4.449	5.484	7.046	9.307	12.59	17.51	23.57	36.18	55.71
308.15 K	3.803	4.618	5.836	7.569	10.04	13.64	18	26.73	39.73
313.15 K	3.251	3.893	4.85	6.204	8.087	10.78	13.99	20.22	29.19
318.15 K	2.838	3.369	4.146	5.219	6.697	8.77	11.19	15.77	22.15
323.15 K	2.506	2.946	3.581	4.451	5.632	7.262	9.138	12.59	17.3

C1=CCCCC1 + c1ccccc1
303.15 K, 101 kPa
Settings	viscosity [mPa·s]
x1 = 0.1198	0.57
x1 = 0.2756	0.568
x1 = 0.3442	0.569
x1 = 0.4509	0.566
x1 = 0.4904	0.566
x1 = 0.6697	0.568
x1 = 0.7561	0.568
x1 = 0.8665	0.571

CC(C)O + CCCCCCC
viscosity [mPa·s], 101 kPa
Settings	x2 = 0.1003	x2 = 0.2009	x2 = 0.3009	x2 = 0.398	x2 = 0.5002	x2 = 0.5961	x2 = 0.6981	x2 = 0.8014	x2 = 0.9084
293.15 K	1.596	1.178	0.9242	0.7437	0.6223	0.5479	0.493	0.4607	0.436
298.15 K	1.413	1.044	0.8165	0.6851	0.5866	0.5025	0.4623	0.4268	0.4025
303.15 K	1.23	0.927	0.7388	0.62	0.5333	0.4679	0.4351	0.4137	0.3897
308.15 K	1.091	0.8401	0.6728	0.577	0.4915	0.4441	0.4083	0.3805	0.3637

CCCNCCC + CCCCCO
viscosity [mPa·s], 101.33 kPa
Settings	x1 = 0.0952	x1 = 0.1918	x1 = 0.2881	x1 = 0.3825	x1 = 0.5157	x1 = 0.616	x1 = 0.7094	x1 = 0.8061	x1 = 0.9023
303.15 K	2.51	2.185	1.875	1.593	1.244	1.034	0.8687	0.7254	0.6098
313.15 K	2.051	1.767	1.51	1.281	1.02	0.8452	0.7187	0.6045	0.5061

CCC(C)CO (stereo not drawn) + COc1ccccc1
viscosity [mPa·s], 101.33 kPa
Settings	x2 = 0.1005	x2 = 0.2004	x2 = 0.3003	x2 = 0.4012	x2 = 0.5001	x2 = 0.6005	x2 = 0.6996	x2 = 0.8001	x2 = 0.9003
303.15 K	2.761	2.126	1.665	1.347	1.149	1.032	0.968	0.932	0.912
313.15 K	2.026	1.601	1.296	1.084	0.952	0.868	0.824	0.803	0.794
323.15 K	1.552	1.246	1.022	0.872	0.784	0.739	0.718	0.707	0.698

Cc1cccc([N+](=O)[O-])c1 + Cc1ccc(C)cc1
308.15 K, 101.33 kPa
Settings	viscosity [mPa·s]
x2 = 0.1004	1.322
x2 = 0.2046	1.122
x2 = 0.2963	1.004
x2 = 0.4016	0.908
x2 = 0.4954	0.846
x2 = 0.6076	0.768
x2 = 0.7023	0.706
x2 = 0.8036	0.649
x2 = 0.8975	0.6

CCCCCl + CC(C)(C)O
viscosity [mPa·s], 101 kPa
Settings	x1 = 0.1052	x1 = 0.2087	x1 = 0.315	x1 = 0.4159	x1 = 0.5172	x1 = 0.6059	x1 = 0.7101	x1 = 0.8039	x1 = 0.8976
298.15 K	2.188	1.359	0.991	0.7867	0.6596	0.582	–	0.4746	0.4434
313.15 K	1.279	0.9194	0.7181	0.5981	0.5189	–	0.4243	0.3963	0.377

CCCCCCCCCCCCCCCCCCCCCCCC + CCCCCCC
Settings	viscosity [mPa·s]
313.2 K, 101.3 kPa, x1 = 0.198	0.9672

OCC(F)(F)C(F)F + O
viscosity [mPa·s], 100 kPa
Settings	x1 = 0.1237	x1 = 0.2532	x1 = 0.3747	x1 = 0.5024	x1 = 0.6133	x1 = 0.7598	x1 = 0.8707
298.15 K	2.07	2.716	3.002	3.314	3.523	3.91	4.341
323.15 K	1.032	1.34	1.478	1.59	1.678	1.807	1.961

Source: the CheMixHub viscosity set
